Reference: article PMC6120666 (The EMBO Journal, 2018)

Key:
Test in all cases: Drug affinity chromatography with c-ponatinib and LC-MS/MS (ponatinib interactome)
Type in all cases: binding
[1] = target: T1, proteins of U2OS cell lysate (Homo sapiens, UniProt P56381); settings: ATP5E;ATP5EP2, ATP synthase subunit epsilon, mitochondrial
T1 construct: Proteins enriched by c-ponatinib from U2OS cell lysate; endogenous in cells; host or cells: U2OS cell lysate
Summary of the method: (§1)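 Proteins were identified by nano-UPLC–MS/MS after elution with formic acid and trypsin digestion. They were captured from U2OS lysate (2 mg protein per pulldown, NP-40 buffer) on amine-coupled NHS beads during a 2 h incubation at 4 °C.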

[2] = target: T2, proteins of U2OS cell lysate (Homo sapiens, UniProt Q13418); settings: ILK, Integrin-linked protein kinase
T2 construct: Proteins enriched by c-ponatinib from U2OS cell lysate; endogenous in cells; host or cells: U2OS cell lysate
Summary of the method: as §1

[3] = target: T3, proteins of U2OS cell lysate (Homo sapiens, UniProt P26640); settings: VARS, Valine--tRNA ligase
T3 construct: Proteins enriched by c-ponatinib from U2OS cell lysate; endogenous in cells; host or cells: U2OS cell lysate
Summary of the method: as §1

[4] = target: T4, proteins of U2OS cell lysate (Homo sapiens, UniProt Q9ULV4); settings: CORO1C, Coronin-1C
T4 construct: Proteins enriched by c-ponatinib from U2OS cell lysate; endogenous in cells; host or cells: U2OS cell lysate
Summary of the method: as §1

[5] = target: T5, proteins of U2OS cell lysate (Homo sapiens, UniProt P25705); settings: ATP5A1, ATP synthase subunit alpha, mitochondrial
T5 construct: Proteins enriched by c-ponatinib from U2OS cell lysate; endogenous in cells; host or cells: U2OS cell lysate
Summary of the method: as §1

[6] = target: T6, proteins of U2OS cell lysate (Homo sapiens, UniProt Q14566); settings: MCM6, DNA replication licensing factor MCM6
T6 construct: Proteins enriched by c-ponatinib from U2OS cell lysate; endogenous in cells; host or cells: U2OS cell lysate
Summary of the method: as §1

[7] = target: T7, proteins of U2OS cell lysate (Homo sapiens, UniProt Q14152); settings: EIF3A, Eukaryotic translation initiation factor 3 subunit A
T7 construct: Proteins enriched by c-ponatinib from U2OS cell lysate; endogenous in cells; host or cells: U2OS cell lysate
Summary of the method: as §1

[8] = target: T8, proteins of U2OS cell lysate (Homo sapiens, UniProt Q14498); settings: RBM39, RNA-binding protein 39
T8 construct: Proteins enriched by c-ponatinib from U2OS cell lysate; endogenous in cells; host or cells: U2OS cell lysate
Summary of the method: as §1

[9] = target: T9, proteins of U2OS cell lysate (Homo sapiens, UniProt O14818); settings: PSMA7;PSMA8, Proteasome subunit alpha type-7
T9 construct: Proteins enriched by c-ponatinib from U2OS cell lysate; endogenous in cells; host or cells: U2OS cell lysate
Summary of the method: as §1

[10] = target: T10, proteins of U2OS cell lysate (Homo sapiens, UniProt P51665); settings: PSMD7, 26S proteasome non-ATPase regulatory subunit 7
T10 construct: Proteins enriched by c-ponatinib from U2OS cell lysate; endogenous in cells; host or cells: U2OS cell lysate
Summary of the method: as §1

[11] = target: T11, proteins of U2OS cell lysate (Homo sapiens, UniProt P08238); settings: HSP90AB1, Heat shock protein HSP 90-beta
T11 construct: Proteins enriched by c-ponatinib from U2OS cell lysate; endogenous in cells; host or cells: U2OS cell lysate
Summary of the method: as §1

[12] = target: T12, proteins of U2OS cell lysate (Homo sapiens, UniProt P35579); settings: MYH9, Myosin-9
T12 construct: Proteins enriched by c-ponatinib from U2OS cell lysate; endogenous in cells; host or cells: U2OS cell lysate
Summary of the method: as §1

[13] = target: T13, proteins of U2OS cell lysate (Homo sapiens, UniProt P35998); settings: PSMC2, 26S protease regulatory subunit 7
T13 construct: Proteins enriched by c-ponatinib from U2OS cell lysate; endogenous in cells; host or cells: U2OS cell lysate
Summary of the method: as §1

[14] = target: T14, proteins of U2OS cell lysate (Homo sapiens, UniProt Q15233); settings: NONO, Non-POU domain-containing octamer-binding protein
T14 construct: Proteins enriched by c-ponatinib from U2OS cell lysate; endogenous in cells; host or cells: U2OS cell lysate
Summary of the method: as §1

[15] = target: T15, proteins of U2OS cell lysate (Homo sapiens, UniProt Q96RR4); settings: CAMKK2, Calcium/calmodulin-dependent protein kinase kinase 2
T15 construct: Proteins enriched by c-ponatinib from U2OS cell lysate; endogenous in cells; host or cells: U2OS cell lysate
Summary of the method: as §1

[16] = target: T16, proteins of U2OS cell lysate (Homo sapiens, UniProt Q13546); settings: RIPK1, Receptor-interacting serine/threonine-protein kinase 1
T16 construct: Proteins enriched by c-ponatinib from U2OS cell lysate; endogenous in cells; host or cells: U2OS cell lysate
Summary of the method: as §1

[17] = target: T17, proteins of U2OS cell lysate (Homo sapiens, UniProt O14976); settings: GAK, Cyclin-G-associated kinase
T17 construct: Proteins enriched by c-ponatinib from U2OS cell lysate; endogenous in cells; host or cells: U2OS cell lysate
Summary of the method: as §1

[18] = target: T18, proteins of U2OS cell lysate (Homo sapiens, UniProt P31946); settings: YWHAB, 14-3-3 protein beta/alpha
T18 construct: Proteins enriched by c-ponatinib from U2OS cell lysate; endogenous in cells; host or cells: U2OS cell lysate
Summary of the method: as §1

[19] = target: T19, proteins of U2OS cell lysate (Homo sapiens, UniProt P21796); settings: captured protein VDAC1, Rank 118
T19 construct: Proteins enriched by c-ponatinib from U2OS cell lysate; endogenous in cells; host or cells: U2OS cell lysate
Summary of the method: as §1

T17 sequence (O14976 whole entry): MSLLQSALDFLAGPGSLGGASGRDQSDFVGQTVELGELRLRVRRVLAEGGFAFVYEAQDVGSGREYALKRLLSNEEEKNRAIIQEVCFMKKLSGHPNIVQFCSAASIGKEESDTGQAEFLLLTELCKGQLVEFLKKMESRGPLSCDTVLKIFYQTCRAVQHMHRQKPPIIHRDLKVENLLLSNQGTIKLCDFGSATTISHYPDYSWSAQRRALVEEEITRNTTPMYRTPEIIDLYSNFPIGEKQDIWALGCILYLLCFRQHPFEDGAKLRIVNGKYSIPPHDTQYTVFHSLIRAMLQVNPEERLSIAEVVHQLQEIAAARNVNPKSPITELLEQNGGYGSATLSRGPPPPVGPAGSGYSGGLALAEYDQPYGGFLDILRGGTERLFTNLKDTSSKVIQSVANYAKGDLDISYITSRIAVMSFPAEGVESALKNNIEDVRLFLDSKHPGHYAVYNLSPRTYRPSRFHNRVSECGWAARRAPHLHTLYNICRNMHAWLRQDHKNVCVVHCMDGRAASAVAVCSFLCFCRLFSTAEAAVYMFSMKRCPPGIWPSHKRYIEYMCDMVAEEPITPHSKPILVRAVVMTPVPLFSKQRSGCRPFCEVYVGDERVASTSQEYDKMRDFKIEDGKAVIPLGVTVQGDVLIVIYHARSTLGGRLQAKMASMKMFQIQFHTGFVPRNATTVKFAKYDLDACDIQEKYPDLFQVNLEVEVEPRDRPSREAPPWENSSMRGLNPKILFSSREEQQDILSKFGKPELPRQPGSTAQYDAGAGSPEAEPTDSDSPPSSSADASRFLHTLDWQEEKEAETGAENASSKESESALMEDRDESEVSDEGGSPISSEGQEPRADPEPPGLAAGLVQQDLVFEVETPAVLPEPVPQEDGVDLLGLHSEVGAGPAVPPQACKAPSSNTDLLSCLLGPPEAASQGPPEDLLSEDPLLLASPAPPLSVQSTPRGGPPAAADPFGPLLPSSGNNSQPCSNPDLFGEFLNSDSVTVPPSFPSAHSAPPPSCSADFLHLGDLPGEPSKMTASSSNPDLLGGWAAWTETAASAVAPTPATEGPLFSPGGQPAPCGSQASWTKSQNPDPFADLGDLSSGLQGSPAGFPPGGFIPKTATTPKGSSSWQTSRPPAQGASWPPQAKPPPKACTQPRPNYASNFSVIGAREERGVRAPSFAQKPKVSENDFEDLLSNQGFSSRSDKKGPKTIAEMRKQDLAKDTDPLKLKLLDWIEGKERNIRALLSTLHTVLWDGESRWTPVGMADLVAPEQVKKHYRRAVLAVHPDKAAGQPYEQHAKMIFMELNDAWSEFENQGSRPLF
T12 sequence (P35579 whole entry): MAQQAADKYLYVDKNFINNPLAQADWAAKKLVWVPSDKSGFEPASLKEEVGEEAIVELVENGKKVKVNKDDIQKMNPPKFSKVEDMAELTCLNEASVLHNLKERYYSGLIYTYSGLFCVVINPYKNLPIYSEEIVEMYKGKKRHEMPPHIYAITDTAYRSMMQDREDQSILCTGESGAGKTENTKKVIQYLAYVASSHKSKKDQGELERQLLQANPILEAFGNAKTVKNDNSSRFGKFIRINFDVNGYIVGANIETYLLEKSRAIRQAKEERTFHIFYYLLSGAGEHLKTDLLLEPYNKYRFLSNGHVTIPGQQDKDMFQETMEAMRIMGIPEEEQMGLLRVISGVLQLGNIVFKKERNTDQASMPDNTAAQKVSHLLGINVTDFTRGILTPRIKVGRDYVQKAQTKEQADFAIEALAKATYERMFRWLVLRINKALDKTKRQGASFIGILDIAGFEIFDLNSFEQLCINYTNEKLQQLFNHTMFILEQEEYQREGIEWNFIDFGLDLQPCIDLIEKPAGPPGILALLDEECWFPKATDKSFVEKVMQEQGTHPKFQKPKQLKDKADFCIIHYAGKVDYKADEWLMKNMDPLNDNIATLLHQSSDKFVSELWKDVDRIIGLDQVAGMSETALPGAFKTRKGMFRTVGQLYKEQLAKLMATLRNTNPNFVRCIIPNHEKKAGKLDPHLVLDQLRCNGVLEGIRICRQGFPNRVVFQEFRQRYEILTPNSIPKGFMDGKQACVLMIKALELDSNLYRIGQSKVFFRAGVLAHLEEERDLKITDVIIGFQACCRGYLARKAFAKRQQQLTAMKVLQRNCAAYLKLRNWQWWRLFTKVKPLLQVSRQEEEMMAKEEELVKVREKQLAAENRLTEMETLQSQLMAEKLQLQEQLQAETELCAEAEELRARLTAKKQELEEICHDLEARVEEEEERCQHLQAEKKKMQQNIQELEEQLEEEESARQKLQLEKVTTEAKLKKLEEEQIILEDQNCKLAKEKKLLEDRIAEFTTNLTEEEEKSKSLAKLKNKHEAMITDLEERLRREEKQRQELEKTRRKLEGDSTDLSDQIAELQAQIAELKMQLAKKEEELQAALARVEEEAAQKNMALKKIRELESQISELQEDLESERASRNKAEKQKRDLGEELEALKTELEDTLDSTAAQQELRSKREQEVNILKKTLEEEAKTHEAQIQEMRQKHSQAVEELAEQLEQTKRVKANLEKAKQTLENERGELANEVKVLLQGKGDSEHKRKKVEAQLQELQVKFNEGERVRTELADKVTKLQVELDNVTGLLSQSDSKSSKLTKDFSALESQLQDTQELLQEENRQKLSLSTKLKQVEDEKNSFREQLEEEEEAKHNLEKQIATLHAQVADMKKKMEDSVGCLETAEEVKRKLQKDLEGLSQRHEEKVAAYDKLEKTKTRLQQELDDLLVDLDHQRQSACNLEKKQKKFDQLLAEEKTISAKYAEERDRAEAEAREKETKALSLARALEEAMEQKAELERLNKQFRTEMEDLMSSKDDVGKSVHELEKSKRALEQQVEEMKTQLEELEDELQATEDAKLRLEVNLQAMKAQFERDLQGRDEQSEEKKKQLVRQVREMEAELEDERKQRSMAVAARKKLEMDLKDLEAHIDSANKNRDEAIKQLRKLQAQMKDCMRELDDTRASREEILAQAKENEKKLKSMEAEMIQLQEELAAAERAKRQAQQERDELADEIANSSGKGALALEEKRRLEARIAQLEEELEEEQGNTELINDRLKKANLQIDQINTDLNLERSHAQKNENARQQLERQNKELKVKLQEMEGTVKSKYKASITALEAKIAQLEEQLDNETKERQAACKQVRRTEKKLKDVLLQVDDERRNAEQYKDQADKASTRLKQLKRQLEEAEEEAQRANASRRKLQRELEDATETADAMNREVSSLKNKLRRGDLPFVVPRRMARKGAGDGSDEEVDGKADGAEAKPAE
T3 sequence (P26640 whole entry): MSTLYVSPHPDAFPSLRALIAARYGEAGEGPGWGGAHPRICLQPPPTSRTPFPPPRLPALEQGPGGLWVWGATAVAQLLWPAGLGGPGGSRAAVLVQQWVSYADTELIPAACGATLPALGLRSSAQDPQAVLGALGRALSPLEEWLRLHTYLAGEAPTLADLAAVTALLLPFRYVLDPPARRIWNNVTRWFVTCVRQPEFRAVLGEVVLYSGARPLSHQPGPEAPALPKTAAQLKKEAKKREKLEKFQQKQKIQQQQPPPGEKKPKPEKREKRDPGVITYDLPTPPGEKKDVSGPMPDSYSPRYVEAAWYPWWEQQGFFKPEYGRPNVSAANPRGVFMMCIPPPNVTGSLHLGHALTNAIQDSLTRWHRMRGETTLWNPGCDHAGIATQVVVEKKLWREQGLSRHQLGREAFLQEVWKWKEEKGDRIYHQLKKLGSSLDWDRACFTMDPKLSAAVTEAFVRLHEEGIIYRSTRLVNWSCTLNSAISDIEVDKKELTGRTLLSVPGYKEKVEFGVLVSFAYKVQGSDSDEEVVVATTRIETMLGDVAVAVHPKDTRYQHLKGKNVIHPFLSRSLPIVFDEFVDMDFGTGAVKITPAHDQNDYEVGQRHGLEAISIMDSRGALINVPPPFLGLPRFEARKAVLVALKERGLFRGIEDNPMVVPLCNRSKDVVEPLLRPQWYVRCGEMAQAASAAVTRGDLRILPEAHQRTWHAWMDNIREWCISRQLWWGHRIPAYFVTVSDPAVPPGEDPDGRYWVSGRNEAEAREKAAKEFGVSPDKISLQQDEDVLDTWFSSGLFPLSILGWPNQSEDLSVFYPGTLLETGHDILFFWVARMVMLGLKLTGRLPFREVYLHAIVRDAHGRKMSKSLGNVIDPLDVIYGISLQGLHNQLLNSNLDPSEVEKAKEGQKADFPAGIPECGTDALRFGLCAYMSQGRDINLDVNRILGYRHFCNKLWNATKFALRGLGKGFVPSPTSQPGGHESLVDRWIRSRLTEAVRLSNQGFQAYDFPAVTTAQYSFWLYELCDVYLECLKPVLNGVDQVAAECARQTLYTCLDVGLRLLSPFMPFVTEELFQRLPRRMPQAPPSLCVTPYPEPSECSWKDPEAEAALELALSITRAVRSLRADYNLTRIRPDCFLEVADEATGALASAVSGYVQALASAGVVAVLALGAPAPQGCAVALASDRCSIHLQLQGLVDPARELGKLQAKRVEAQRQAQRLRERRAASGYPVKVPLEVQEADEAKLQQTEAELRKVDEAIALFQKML
T14 sequence (Q15233 whole entry, the tested form may be a part): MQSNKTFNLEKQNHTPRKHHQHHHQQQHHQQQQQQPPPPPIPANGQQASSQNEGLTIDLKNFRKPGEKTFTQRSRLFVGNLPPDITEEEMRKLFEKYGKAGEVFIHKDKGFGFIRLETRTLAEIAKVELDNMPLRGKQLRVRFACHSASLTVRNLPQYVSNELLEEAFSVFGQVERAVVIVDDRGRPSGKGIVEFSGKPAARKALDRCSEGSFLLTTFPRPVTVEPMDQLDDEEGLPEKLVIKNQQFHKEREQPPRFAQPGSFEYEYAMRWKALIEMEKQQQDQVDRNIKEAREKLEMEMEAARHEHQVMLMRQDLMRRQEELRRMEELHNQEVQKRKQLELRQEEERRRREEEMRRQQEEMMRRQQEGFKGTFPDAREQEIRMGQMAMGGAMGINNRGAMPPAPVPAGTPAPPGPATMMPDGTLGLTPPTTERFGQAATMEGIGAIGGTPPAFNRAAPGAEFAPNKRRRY
T1 sequence (P56381 whole entry): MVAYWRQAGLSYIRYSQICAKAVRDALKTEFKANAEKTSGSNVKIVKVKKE

SMILES	Average LFQ PON_WT [1]	Average LFQ PON_WT [2]	Average LFQ PON_WT [3]	Average LFQ PON_WT [4]	Average LFQ PON_WT [5]	Average LFQ PON_WT [6]	Average LFQ PON_WT [7]	Average LFQ PON_WT [8]	Average LFQ PON_WT [9]	Average LFQ PON_WT [10]	Average LFQ PON_WT [11]	Average LFQ PON_WT [12]	Average LFQ PON_WT [13]	Average LFQ PON_WT [14]	Average LFQ PON_WT [15]	Average LFQ PON_WT [16]	Average LFQ PON_WT [17]	Average LFQ PON_WT [18]	Average LFQ intensity [19]
Cc1ccc(C(=O)Nc2ccc(CN3CCN(C)CC3)c(C(F)(F)F)c2)cc1C#Cc1cnc2cccnn12 [PON]	23.9529	21.0026	20.4235	24.6024	26.7182	19.2204	21.466	20.4989	22.0977	21.0889	24.5074	25.6681	21.2631	20.9839	20.0519	25.0833	23.4188	23.524	
Cc1ccc(C(=O)Nc2ccc(CN3CCN(CCCN)CC3)c(C(F)(F)F)c2)cc1C#Cc1cnc2cccnn12 [c-ponatinib, reference compound]																			23.117
